US8134007B2, “Pyridine derivatives” (Pfizer Inc., priority 2007, dated 2012)

Legend:
Assay type in all cases: cell-based
Human Nav1.8 = biological target: T1, Human Nav1.8 (Homo sapiens, UniProt Q9Y5Y9); assay: VIPR Assay for Nav1.8 Compounds (FRET membrane potential, deltamethrin opener); details: VIPR FRET membrane potential assay, deltamethrin opener; average of replicates; read-out: Nav1.8 IC50
T1 construct: expressed in transfected cells; host or cells: HEK293

[1] = system: tetrodotoxin-sensitive voltage-gated sodium channels including NaV1.2, NaV1.3 and NaV1.7; assay: TTX-S Assay (VIPR, SHSY-5Y cell line, veratridine opener); details: read-out: TTX-S IC50, veratridine 50 μM opener, average of replicates
Human Nav1.5 = biological target: T2, Human Nav1.5 (Homo sapiens, UniProt Q14524); assay: Nav1.5 Assay (VIPR, HEK293 cells); details: HEK293 cells expressing Human Nav1.5; average of replicates; read-out: Nav1.5 IC50
T2 construct: expressed in transfected cells; host or cells: HEK293
T2 sequence (Q14524 whole entry): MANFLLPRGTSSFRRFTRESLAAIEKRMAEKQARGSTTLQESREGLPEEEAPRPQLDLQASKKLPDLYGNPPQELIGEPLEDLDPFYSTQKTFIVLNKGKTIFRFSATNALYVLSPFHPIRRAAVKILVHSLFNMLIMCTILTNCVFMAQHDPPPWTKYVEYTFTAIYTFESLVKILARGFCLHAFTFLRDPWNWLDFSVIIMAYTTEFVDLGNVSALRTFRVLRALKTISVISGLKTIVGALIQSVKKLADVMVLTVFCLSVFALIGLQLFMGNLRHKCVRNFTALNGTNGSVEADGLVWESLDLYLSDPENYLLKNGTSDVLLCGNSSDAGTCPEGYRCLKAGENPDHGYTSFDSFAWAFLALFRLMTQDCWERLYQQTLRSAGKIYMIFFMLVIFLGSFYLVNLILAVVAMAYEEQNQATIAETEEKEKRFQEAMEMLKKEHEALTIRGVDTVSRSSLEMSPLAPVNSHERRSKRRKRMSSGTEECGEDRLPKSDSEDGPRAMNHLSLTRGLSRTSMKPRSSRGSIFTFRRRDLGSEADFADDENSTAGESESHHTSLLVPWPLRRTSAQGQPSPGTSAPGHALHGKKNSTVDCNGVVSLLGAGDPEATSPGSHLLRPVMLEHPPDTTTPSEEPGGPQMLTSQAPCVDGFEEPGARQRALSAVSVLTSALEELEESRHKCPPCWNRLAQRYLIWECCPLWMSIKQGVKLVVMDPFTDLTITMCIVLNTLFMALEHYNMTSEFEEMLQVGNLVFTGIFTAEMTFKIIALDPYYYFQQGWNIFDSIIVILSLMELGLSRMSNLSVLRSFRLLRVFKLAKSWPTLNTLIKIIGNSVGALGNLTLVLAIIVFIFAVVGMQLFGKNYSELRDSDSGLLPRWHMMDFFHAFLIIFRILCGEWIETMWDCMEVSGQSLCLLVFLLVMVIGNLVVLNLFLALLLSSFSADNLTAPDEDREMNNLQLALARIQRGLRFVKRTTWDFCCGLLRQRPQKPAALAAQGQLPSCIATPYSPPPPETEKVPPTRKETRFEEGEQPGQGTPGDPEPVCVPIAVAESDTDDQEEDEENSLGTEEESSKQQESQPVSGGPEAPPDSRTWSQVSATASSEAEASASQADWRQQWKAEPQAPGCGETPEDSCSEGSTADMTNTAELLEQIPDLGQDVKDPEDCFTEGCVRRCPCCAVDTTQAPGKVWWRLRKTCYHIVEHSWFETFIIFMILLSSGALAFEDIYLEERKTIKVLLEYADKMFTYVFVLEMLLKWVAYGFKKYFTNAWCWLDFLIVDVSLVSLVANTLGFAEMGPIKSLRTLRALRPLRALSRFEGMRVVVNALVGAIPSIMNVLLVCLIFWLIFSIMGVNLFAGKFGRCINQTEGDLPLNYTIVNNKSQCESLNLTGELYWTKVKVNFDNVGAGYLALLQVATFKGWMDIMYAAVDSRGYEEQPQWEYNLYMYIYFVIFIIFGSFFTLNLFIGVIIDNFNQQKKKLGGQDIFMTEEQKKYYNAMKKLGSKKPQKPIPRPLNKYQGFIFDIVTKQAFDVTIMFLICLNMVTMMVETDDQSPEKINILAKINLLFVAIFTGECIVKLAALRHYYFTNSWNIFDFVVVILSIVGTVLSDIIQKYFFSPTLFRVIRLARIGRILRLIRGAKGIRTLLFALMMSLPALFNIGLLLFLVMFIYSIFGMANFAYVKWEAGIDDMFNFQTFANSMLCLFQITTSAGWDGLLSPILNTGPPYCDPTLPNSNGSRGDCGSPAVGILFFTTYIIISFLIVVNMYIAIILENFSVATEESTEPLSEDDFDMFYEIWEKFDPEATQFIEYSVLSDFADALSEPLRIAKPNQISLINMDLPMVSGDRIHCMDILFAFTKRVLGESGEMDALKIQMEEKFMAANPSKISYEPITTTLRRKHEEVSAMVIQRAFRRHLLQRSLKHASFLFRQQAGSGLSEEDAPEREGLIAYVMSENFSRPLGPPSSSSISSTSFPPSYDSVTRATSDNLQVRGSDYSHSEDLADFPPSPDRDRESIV
Protocol: The Nav1.5 assay is performed in HEK293 cells expressing Human Nav1.5 in the same way as the Nav1.8 assay.
Where replicate experiments were conducted resulting in multiple sets of data for a test compound, the data presented represent the average value from all replicate experiments.

T1 sequence (Q9Y5Y9 whole entry): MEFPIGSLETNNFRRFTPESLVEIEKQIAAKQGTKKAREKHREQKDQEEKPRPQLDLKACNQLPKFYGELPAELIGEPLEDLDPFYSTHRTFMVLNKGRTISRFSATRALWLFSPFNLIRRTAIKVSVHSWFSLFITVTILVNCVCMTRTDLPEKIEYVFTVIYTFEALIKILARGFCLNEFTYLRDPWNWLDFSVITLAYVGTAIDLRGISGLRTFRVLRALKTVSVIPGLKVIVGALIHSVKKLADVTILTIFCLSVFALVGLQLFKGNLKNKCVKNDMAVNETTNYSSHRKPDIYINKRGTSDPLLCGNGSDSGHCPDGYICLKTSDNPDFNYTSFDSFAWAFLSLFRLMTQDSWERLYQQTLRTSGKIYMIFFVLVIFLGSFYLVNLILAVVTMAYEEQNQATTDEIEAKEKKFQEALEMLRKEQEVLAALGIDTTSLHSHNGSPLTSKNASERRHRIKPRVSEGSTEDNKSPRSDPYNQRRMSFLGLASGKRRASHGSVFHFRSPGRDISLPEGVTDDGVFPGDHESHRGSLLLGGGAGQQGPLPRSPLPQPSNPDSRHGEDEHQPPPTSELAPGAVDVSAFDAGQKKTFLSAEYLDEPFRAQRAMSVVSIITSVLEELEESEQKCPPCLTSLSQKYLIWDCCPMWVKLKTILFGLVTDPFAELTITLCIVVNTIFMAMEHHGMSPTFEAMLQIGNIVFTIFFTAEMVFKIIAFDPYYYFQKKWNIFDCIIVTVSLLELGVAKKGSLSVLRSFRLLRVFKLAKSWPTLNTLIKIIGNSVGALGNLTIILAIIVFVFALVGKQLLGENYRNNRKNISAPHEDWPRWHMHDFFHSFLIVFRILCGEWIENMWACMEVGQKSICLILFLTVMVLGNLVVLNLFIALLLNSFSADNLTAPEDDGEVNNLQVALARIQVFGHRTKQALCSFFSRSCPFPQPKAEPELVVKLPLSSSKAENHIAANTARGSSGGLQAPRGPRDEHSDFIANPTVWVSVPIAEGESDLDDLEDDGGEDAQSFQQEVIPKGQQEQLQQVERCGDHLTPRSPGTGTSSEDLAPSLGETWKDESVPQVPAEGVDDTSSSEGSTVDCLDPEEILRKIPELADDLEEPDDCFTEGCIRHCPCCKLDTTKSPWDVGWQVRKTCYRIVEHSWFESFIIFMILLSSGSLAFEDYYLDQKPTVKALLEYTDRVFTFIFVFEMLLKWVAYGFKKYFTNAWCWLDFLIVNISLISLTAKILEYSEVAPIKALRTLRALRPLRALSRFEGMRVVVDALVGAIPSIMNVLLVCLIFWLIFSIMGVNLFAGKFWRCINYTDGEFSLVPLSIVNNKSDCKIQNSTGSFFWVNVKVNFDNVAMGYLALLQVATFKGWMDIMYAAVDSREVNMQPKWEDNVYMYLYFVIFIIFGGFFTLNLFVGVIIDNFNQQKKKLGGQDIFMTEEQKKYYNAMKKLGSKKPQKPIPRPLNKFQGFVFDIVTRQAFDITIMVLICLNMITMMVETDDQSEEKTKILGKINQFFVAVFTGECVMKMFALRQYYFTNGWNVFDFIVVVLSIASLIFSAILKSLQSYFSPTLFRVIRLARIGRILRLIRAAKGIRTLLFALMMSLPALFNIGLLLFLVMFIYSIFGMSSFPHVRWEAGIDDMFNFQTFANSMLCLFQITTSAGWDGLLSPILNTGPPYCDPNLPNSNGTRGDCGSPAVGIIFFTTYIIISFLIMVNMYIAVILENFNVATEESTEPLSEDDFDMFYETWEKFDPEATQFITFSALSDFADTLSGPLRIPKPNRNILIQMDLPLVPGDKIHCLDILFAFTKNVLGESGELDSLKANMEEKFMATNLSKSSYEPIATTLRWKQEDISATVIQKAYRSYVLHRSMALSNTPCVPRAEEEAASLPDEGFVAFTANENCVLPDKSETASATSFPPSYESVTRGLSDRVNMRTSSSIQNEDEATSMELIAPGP

`Cn1nncc1C(=O)Nc1ccc(-c2cc(Cl)ccc2Cl)c(N)n1` [Example 80, N-[6-Amino-5-(2,5-dichlorophenyl)pyridin-2-yl]-1-methyl-1H-1,2,3-triazole-5-carboxamide] gave an IC50 (Human Nav1.8) of 3.4 µM, an IC50 [1] of 15 µM and an IC50 (Human Nav1.5) of 15 µM.

For `COc1cc(Cl)c(Cl)c(-c2ccc(NC(=O)c3nonc3C)nc2N)c1` [Example 48, N-[6-Amino-5-(2,3-dichloro-5-methoxyphenyl)pyridin-2-yl]-4-methyl-1,2,5-oxadiazole-3-carboxamide], the IC50 (Human Nav1.8) was 0.76 µM, the IC50 [1] was 3.3 µM and the IC50 (Human Nav1.5) was 22 µM.

For `Cn1nncc1C(=O)Nc1ccc(-c2ccccc2OC(F)(F)F)c(N)n1` [Example 85, N-{6-Amino-5-[2-(trifluoromethoxy)phenyl]pyridin-2-yl}-1-methyl-1H-1,2,3-triazole-5-carboxamide], the IC50 (Human Nav1.8) was 7 µM, the IC50 [1] was 28 µM and the IC50 (Human Nav1.5) was 31 µM.

With `Cc1nocc1C(=O)Nc1ccc(-c2cccc3c2OCCO3)c(N)n1` [Example 35, N-[6-Amino-5-(2,3-dihydro-1,4-benzodioxin-5-yl)pyridin-2-yl]-3-methylisoxazole-4-carboxamide] the IC50 (Human Nav1.8) was 11 µM, the IC50 [1] was greater than 32 µM and the IC50 (Human Nav1.5) was greater than 32 µM.

`Cn1nccc1C(=O)Nc1ccc(-c2ccc(F)cc2Cl)c(N)n1` [Example 10, N-[6-Amino-5-(2-chloro-4-fluorophenyl)pyridin-2-yl]-1-methyl-1H-pyrazole-5-carboxamide] was tested, and the IC50 (Human Nav1.8) was 25 µM, the IC50 [1] was greater than 32 µM and the IC50 (Human Nav1.5) was greater than 32 µM.

For `Nc1nc(NC(=O)c2conc2C(F)(F)F)ccc1-c1ccccc1Cl` [Example 111], the IC50 (Human Nav1.8) was 0.51 µM, the IC50 [1] was 6.1 µM and the IC50 (Human Nav1.5) was 16 µM.

With `COCc1cc(C(=O)Nc2ccc(-c3ccccc3Cl)c(N)n2)on1` [Example 95] the IC50 (Human Nav1.8) was greater than 32 µM, the IC50 [1] was 29 µM and the IC50 (Human Nav1.5) was greater than 32 µM.
